In patent US12264170B2, “Antimicrobial organosilanes” (TOPIKOS SCIENTIFIC, INC., priority 2019, dated 2025):

Key:
[1] = Dissolution of isolated product in water; assay type: physicochemical; conditions: observation
[2] = product dissolved in water, observation

CCCCCCCCCCCCCCCCCC[N+](C)(C)CCC[Si](OCC(CO)(CO)NCCS(=O)(=O)[O-])(OCC(CO)(CO)NCCS(=O)(=O)O)OCC(CO)(CO)NCCS(=O)(=O)O [Example 1, Disodium; 2-[[1-[[3-[dimethyl(octadecyl)ammonio]propyl-[3-hydroxy-2-(hydroxymethyl)-2-(2-sulfoethylamino)propoxy]-[3-hydroxy-2-(hydroxymethyl)-2-(2-sulfonatoethylamino)propoxy]silyl]oxymethyl]-2-hydroxy-1-(hydroxymethyl)ethyl]amino]ethanesulfonate chloride]
dissolution in water [1]: dissolves in water

CCCCCCCCCCCCCCCCCC[N+](C)(C)CCC[Si](OCC(CO)(CO)NCC(O)CS(=O)(=O)[O-])(OCC(CO)(CO)NCC(O)CS(=O)(=O)O)OCC(CO)(CO)NCC(O)CS(=O)(=O)O (stereo not shown) [Example 2, Disodium; 3-[[1-[[3-[dimethyl(octadecyl)ammonio]propyl-[3-hydroxy-2-(hydroxymethyl)-2-[(2-hydroxy-3-sulfonato-propyl)amino]propoxy]-[3-hydroxy-2-(hydroxymethyl)-2-[(2-hydroxy-3-sulfo-propyl)amino]propoxy]silyl]oxymethyl]-2-hydroxy-1-(hydroxymethyl)ethyl]amino]-2-hydroxy-propane-1-sulfonate; chloride]
dissolution in water [1]: dissolves in water

CCCCCCCCCCCCCCCCCC[N+](C)(C)CCC[Si](OCC(CO)(CO)NCCS(=O)(=O)[O-])(OCC(CO)(CO)NCCS(=O)(=O)O)OCC(CO)(CO)NCCS(=O)(=O)O [Example 4, Sodium; 7,7-bis(3-hydroxy-2-(hydroxymethyl)-2-((2-sulfoethyl)amino)propoxy)-4,4-bis(hydroxymethyl)-11,11-dimethyl-6-oxa-3,11-diaza-7-silanonacosan-11-ium-1-sulfonate; chloride]
dissolution in water [1]: dissolved quickly in water, initially hazy but slowly forms clear

CCCCCCCCCCCCCCCCC[N+](C)(C)CCC[Si](OCCN(CCO)CC(O)CS(=O)(=O)[O-])(OCCN(CCO)CC(O)CS(=O)(=O)O)OCCN(CCO)CC(O)CS(=O)(=O)O (stereo not shown) [Example 8, Disodium; 3-[2-[3-[heptadecyl(dimethyl)ammonio]propyl-[2-[2-hydroxyethyl-(2-hydroxy-3-sulfonato-propyl)amino]ethoxy]-[2-[2-hydroxyethyl-(2-hydroxy-3-sulfo-propyl)amino]ethoxy]silyl]oxyethyl-(2-hydroxyethyl)amino]-2-hydroxy-propane-1-sulfonate; chloride]
dissolution in water [1]: dissolved in water | stability in water [2]: forms a precipitate after 5 hours

CCCCCCCCCCCCCCCCCC[N+](C)(C)CCC[Si](OCC(CO)(CO)NCC(=O)[O-])(OCC(CO)(CO)NCC(=O)[O-])OCC(CO)(CO)NCC(=O)O.[Cl-].[Na+].[Na+] [Example 10, Disodium, 7-(2-((carboxymethyl)amino)-3-hydroxy-2-(hydroxymethyl)propoxy)-7-(3-(dimethyl(octadecyl)ammonio)propyl)-4,4,10,10-tetrakis(hydroxymethyl)-6,8-dioxa-3,11-diaza-7-silatridecanedioate; chloride]
dissolution in water [1]: readily dissolved in water

CCCCCCCCCCCCCCCCC[N+](C)(C)CCC[Si]12OC[C@@H](O)[C@H](O1)[C@H](O)[C@H](C(=O)[O-])O2 [Example 16, Sodium (3R,4S,5S,6R)-1-(3-(heptadecyldimethylammonio)propyl)-4,6-dihydroxy-2,8,9-trioxa-1-silabicyclo[3.3.1]nonane-3-carboxylate; Chloride]
dissolution in water [1]: poorly dissolved in water | stability in water [2]: quickly decomposed to for a biphasic mixture

CCCCCCCCCCCCCCCCC[N+](C)(C)CCC[Si]1(O[C@H](C(=O)O)[C@H](O)[C@H](O)[C@@H](O)C(=O)O)O[C@@H]([C@H](O)C(=O)O)[C@H](O)[C@H](C(=O)O)O1 (stereo partly drawn) [Example 17, N-(3-((4R,5S,6R)-4-carboxy-6-((S)-carboxy(hydroxy)methyl)-2-((1S,2R,3S,4R)-1,4-dicarboxy-2,3,4-trihydroxybutoxy)-5-hydroxy-1,3,2-dioxasilinan-2-yl)propyl)-N,N-dimethylheptadecan-1-aminium chloride]
dissolution in water [1]: poorly dissolved in water | stability in water [2]: quickly decomposed to for a biphasic mixture

CCCCCCCCCCCCCCCCCC[N+](C)(C)CCC[Si](OCC(CO)(CO)NCCS(=O)(=O)[O-])(OCC(CO)(CO)NCCS(=O)(=O)O)OCC(CO)(CO)NCCS(=O)(=O)O.[Cl-].[Na+] [Example 21, Monosodium; 2-[[1-[[3-[dimethyl(octadecyl)ammonio]propyl-[3-hydroxy-2-(hydroxymethyl)-2-(2-sulfoethylamino)propoxy]-[3-hydroxy-2-(hydroxymethyl)-2-(2-sulfonatoethylamino)propoxy]silyl]oxymethyl]-2-hydroxy-1-(hydroxymethyl)ethyl]amino]ethanesulfonate chloride]
dissolution in water [1]: dissolves readily in water

Disodium, 7-(2-((carboxymethyl)(2-hydroxyethyl)amino)ethoxy)-7-(3-(heptadecyldimethylammonio)propyl)-3,11-bis(2-hydroxyethyl)-6,8-dioxa-3,11-diaza-7-silatridecanedioate; chloride [Example 13]
dissolution in water [1]: readily dissolved in water | stability in water [2]: soon formed a suspension
